Reference: PubChem BioAssay AID1259342 (Broad Institute, 2017)
Activity calls are given as the source filed them.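 The calls were made as follows: active = fitted half-maximal inhibitory concentration AC50 at most ten times the top concentration tested; inconclusive = flat fit with 30 to 70% inhibition, or unusable fit; inactive = AC50 above ten times the top concentration.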

Target: E3 ubiquitin-protein ligase TRIM62 (Homo sapiens) (UniProt Q9BVG3)
Assay: inhibitors of TRIM62-driven CARD9 ubiquitylation, dose response, CARD9-TRIM62 disruptor project, biochemical, ubiquitin ELISA, AlphaLISA TUBE (AID 1259342);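 as to AC50: potency is for inhibitors that reduce CARD9 ubiquitylation signal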
Conditions: TRIM62-mediated CARD9 ubiquitylation, AlphaLISA TUBE detection

E3 ubiquitin-protein ligase TRIM62 (Homo sapiens), sequence (Q9BVG3 whole entry, looked up): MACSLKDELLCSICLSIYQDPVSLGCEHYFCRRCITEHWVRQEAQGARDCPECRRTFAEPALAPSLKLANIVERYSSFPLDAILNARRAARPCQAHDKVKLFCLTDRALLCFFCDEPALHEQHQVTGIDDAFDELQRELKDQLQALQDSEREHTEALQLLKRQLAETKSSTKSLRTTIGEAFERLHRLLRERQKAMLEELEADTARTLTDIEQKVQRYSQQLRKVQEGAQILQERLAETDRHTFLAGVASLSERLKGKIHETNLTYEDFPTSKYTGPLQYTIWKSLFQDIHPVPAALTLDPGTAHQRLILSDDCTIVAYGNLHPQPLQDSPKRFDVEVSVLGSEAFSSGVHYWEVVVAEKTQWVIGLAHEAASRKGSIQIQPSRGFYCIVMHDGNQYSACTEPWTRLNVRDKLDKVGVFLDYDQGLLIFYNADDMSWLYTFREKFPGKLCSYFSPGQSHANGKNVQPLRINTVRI

| Compound | AC50 |
| --- | --- |
| O=S(=O)(Nc1nccs1)c1ccc(-n2cccc2)cc1 | 17.4 µM |
| N#CCSc1nc2c(c(=O)n1Cc1ccco1)C1(CCCC1)Cc1ccccc1-2 | 57 µM |
| CC1Cc2ccccc2N1CC(=O)NC(=O)NC(C)(C)C (stereo unspecified) | > 160 µM (inactive) |
| CCOC(=O)c1[nH]c(Cc2[nH]c(C(=O)OCC)c(C)c2C)c(C)c1C | > 160 µM (inactive) |
| COc1ccc(-n2c(C)c3c(OC)cccc(=O)c3c2C)cc1 | 27.6 µM |
| COc1ccc(S(=O)(=O)N2CCN(C(=O)c3cc4c(s3)CCC4)CC2)cc1 | 10.2 µM |
| O=C(O)COc1ccc(-n2cccc2)cc1 | 14.7 µM |
| C(=C\c1ccco1)/c1nc2ccccc2[nH]1 | 29 µM |
| O=C(O)C1Oc2cc3ccccc3cc2O1 | 3.02 µM |
| O=C(NCc1ccco1)c1c2c(nc3ccccc13)CCC2 | 17.3 µM |
| O=C(O)c1ccc2nc(-c3ccco3)c(-c3ccco3)nc2c1 | 11.8 µM |
| O=C(O)c1ccccc1/C=N/NC(=O)c1cc(-c2ccco2)nc2ccccc12 | 3 µM |
| O=C(Nc1nccs1)c1cc(-c2ccccn2)nc2c(Cl)cccc12 | 75.4 µM |
| Cc1ccc(C)n1NC(=O)c1ccccc1O | 13.5 µM |
| Cc1ccc(Cc2cnc(N)s2)o1 | > 160 µM (inactive) |
| O=C(O)c1cc(-c2ccc(-c3ccc(F)cc3)o2)nc2ccccc12 | 31.4 µM |
| CC(C)(C)c1ccc(-c2nc(C#N)c(NCc3ccncc3)o2)cc1 | 22.3 µM |
| O=c1oc(/C=C/c2ccc([N+](=O)[O-])s2)nc2ccccc12 | > 160 µM (inactive) |
| Cc1nn2c(c1-c1ccccc1)NC(c1ccco1)=CC2c1ccco1 (stereo unspecified) | 13 µM |
| O=C(COc1cccnc1[N+](=O)[O-])c1ccc(Cl)s1 | 26.2 µM |
| O=C(COC(=O)c1ccc(S(=O)(=O)NCc2ccco2)cc1)Nc1ccc(Cl)cn1 | 26.9 µM |
| O=c1oc(-c2ccccc2)nc2sc3c(c12)CCC3 | > 160 µM (inactive) |
| CC1=CCC(C(=O)O)C(C(=O)NC2CCCCC2)C1 (stereo unspecified) | 47.4 µM |

| Compound | AC50 |
| --- | --- |
| CCc1nc(OCc2ccco2)c2sc3nc4c(cc3c2n1)COC(C)(C)C4 | > 160 µM (inactive) |
| NC(=O)C1(N2CCCCC2)CCN(c2ncc(NC(=O)c3cccs3)cc2C(=O)O)CC1 | 35.8 µM |
| CC(=O)Nc1ccc(Nc2nc(-c3nnc(-c4cccc(C)c4)o3)nc3ccccc23)cc1 | 19 µM |
| COc1ccc(N2CC3=C(N2)c2ccccc2CC3)cc1 | 54 µM |
| COc1ccc(NC(=O)c2nc(Nc3ccccc3)c3ccccc3n2)cc1 | 67.8 µM |
| O=S(=O)(Nc1nc2ccc(S(=O)(=O)N3CCCCC3)cc2s1)c1ccccc1 | 42.2 µM |
| CCc1cc2c(=O)n(Cc3ccco3)c(SC)nc2s1 | > 160 µM (inactive) |
| CCC1c2ccc(C)n2CCN1C(=O)Nc1ccccc1C(=O)OC (stereo unspecified) | 72.5 µM |
| Cc1cccc(NC(=O)Cc2coc3ccc4ccccc4c23)n1 | 70 µM |
| CCN(CCNC(=O)C1CCN(S(=O)(=O)c2c(C)noc2C)CC1)c1ccccc1 | > 160 µM (inactive) |
| O=C(CN1CCN(c2ccccc2O)CC1)NC(=O)NC1CCCC1 | > 160 µM (inactive) |
| Cc1ccc(-c2nc(C)sc2CC(=O)NCc2ccco2)cc1 | 56.6 µM |
| COc1ccc(NC(=O)CN(C)C(=O)c2cc(-c3ccco3)nc3ccccc23)cc1 | 16.6 µM |
| O=C(Nc1nc(-c2ccco2)c(-c2ccco2)s1)c1ccc(F)cc1F | > 160 µM (inactive) |
| Cc1noc(CN(C)C(=O)c2cc(-c3ccco3)nc3c(C)c(Cl)ccc23)n1 | 49.2 µM |
| O=C(Nc1nc(-c2ccco2)c(-c2ccco2)s1)C1CCC1 | 6.56 µM |
| O=C(NC1CC1)c1cc(-c2ccco2)nc2ccccc12 | 21.2 µM |
| O=C(Nc1nc(-c2ccco2)c(-c2ccco2)s1)c1ccco1 | 4.63 µM |
| Cc1oc(CSCc2cc(C(=O)O)c(C)o2)cc1C(=O)O | > 160 µM (inactive) |
| Cc1ccccc1C(=O)Nc1cnc(N2CCC(C(N)=O)(N3CCCCC3)CC2)c(C(=O)O)c1 | 9.03 µM |
| N#Cc1c(NC(=O)CSc2nc3ccccc3o2)sc2c1CCC2 | 74.1 µM |
| Cc1c(C(=O)OCC2CCCO2)[nH]c2c1C(=O)CC(c1ccco1)C2 (stereo unspecified) | 38.1 µM |
| CCCN1CCc2nc(SCc3nc(-c4ccc(OC)cc4OC)oc3C)[nH]c(=O)c2C1 | > 160 µM (inactive) |

Same assay, conditions: TRIM62-mediated CARD9 ubiquitylation, AlphaLISA TUBE detection; at 38 µM (top of the series)

| Compound | activity change, negative = inhibition |
| --- | --- |
| NC(=O)C1(N2CCCCC2)CCN(c2ncc(NC(=O)c3ccc(F)cc3)cc2C(=O)O)CC1 | inactive |
| O=C(NCCc1ccco1)c1ccc(OCc2cn3ccccc3n2)cc1 | inactive |
| CCCCCn1c(NC(=O)c2ccco2)c(C(=O)OCC)c2nc3ccccc3nc21 | inactive |
| O=C(COC(=O)c1ccccc1Oc1ccccc1)NCc1ccco1 | inactive |
| Cc1ccc(C)n1Nc1nc(O)cs1 | inactive |
| O=C1NC(c2ccc(Br)cc2)Nc2sc3c(c21)CCC3 (stereo unspecified) | inactive |
| Cc1ccc(Nc2nc(C(=O)Nc3ccc(Br)cc3)nc3ccccc23)cc1 | inactive |

Same assay, conditions: TRIM62-mediated CARD9 ubiquitylation, AlphaLISA TUBE detection; at 80 µM (top of the series)

| Compound | activity change, negative = inhibition |
| --- | --- |
| COc1ccc(CNC(=O)c2nc(Nc3ccc(C)cc3)c3ccccc3n2)cc1 | inactive |
| Nc1ccc2ncccc2c1N | inactive |
| Cc1ccc2cc(CN(Cc3ccco3)S(C)(=O)=O)c(=O)[nH]c2c1 | inactive |
| NC(=O)C1(N2CCCCC2)CCN(c2ccc(NC(=O)c3cccc(Cl)c3)cc2C(=O)O)CC1 | inactive |
| O=C1CC(c2ccco2)Cc2nc(N3CCc4ccccc4C3)ncc21 (stereo unspecified) | inactive |
| Cc1occc1C(=O)NCc1cccc(CNC(=O)c2ccoc2C)c1 | inactive |
| CS(=O)(=O)c1ccc2ccn(O)c2c1 | inactive |
| O=C(O)C(c1ccccc1)C(c1ccccc1)c1ccccc1 (stereo unspecified) | inactive |
| Cc1cnc(C)c(N2CCN(C(=O)[C@H]3CC[C@@H](N)C3)CC2)n1 | inactive |
| O=[N+]([O-])c1cccc(-c2nnc3ccc4ccccc4n23)c1 | inactive |
| Cc1ccc(C(=O)Nc2ccc(N3CCC(C(N)=O)(N4CCCCC4)CC3)c(C(=O)O)c2)cc1 | inactive |
| O=C(O)c1ccccc1SC1CC(=O)N(Cc2ccccc2)C1=O (stereo unspecified) | inactive |
| C[n+]1cccc2cccc(O)c21 | inactive |
| C=CCNc1ncnc2c1CCN(C(=O)c1ccc(CSC)o1)CC2 | inactive |
| CCSCCNC(=O)c1cncc(Br)c1 | inactive |
| O=C(NC(Sc1ncccn1)C(=O)c1ccccc1)c1ccccc1 (stereo unspecified) | inactive |
| CCCc1oc(C(=O)O)cc1CN | inactive |
| O=C(Nc1ncccc1O)c1ccc(OCC2CCCO2)cc1 (stereo unspecified) | inactive |
| COCCC(=O)N1CCCC2(CCN(CCN3CCCC3)C2=O)C1 (stereo unspecified) | inactive |
| O=[N+]([O-])c1c(NCCCO)cc(SCc2ccco2)c2nonc12 | inactive |
| CN(C)c1ccc(CN2C[C@H]3CC[C@@H]2CN(C(=O)c2ccncc2)C3)cn1 | inactive |
| O=C(CCCN1C(=O)NC2(CCCC2)C1=O)Nc1ccc(F)cc1 | inactive |
| COc1ccc(S(=O)(=O)c2ccccc2)cc1NS(=O)(=O)c1cccc(C(=O)O)c1 | inactive |
| COc1ccc(-c2nnc(-c3nc(Nc4ccc(NC(C)=O)cc4)c4ccccc4n3)o2)cc1 | inactive |

| Compound | activity change, negative = inhibition |
| --- | --- |
| NC(=O)c1ccc(CN2C(=O)C3(CCNCC3)Nc3ccccc32)cc1 | inactive |
| O=C(CCN1CCOCC1)c1ccc2c(c1)OCCO2 | inactive |
| CN(Cc1ccco1)S(=O)(=O)c1nnc(NC(=O)c2ccccc2)s1 | inactive |
| CC(C)=CCC(C#N)(CC=C(C)C)C(=O)O | inactive |
| O=C(Cn1cncc1-c1ccc([N+](=O)[O-])cc1)Nc1ccccc1F | inactive |
| CC(CCc1ccco1)N(C)S(=O)(=O)c1ccc2[nH]c(=O)ccc2c1 (stereo unspecified) | inactive |
| O=C(NCc1ccco1)C1CCCN(S(=O)(=O)c2cccc3nonc23)C1 (stereo unspecified) | inactive |
| O=C(CN1CCOC1=O)N1CCC2(CCC(=O)N(CCCn3ccnc3)C2)CC1 | inactive |
| FC(F)(F)c1cc(Cl)c2nnc(C(F)(F)Cl)n2c1 | inactive |
| O=C(Nc1ccc2c(c1)nc1n2CCN(C2CCCCC2)C1)c1ccco1 | inactive |
| O=C(N/N=C/C=C/c1ccco1)c1cncc(Br)c1 | inactive |
| Cc1ccc(Nc2nc(C(=O)Nc3ccc(Cl)cc3)nc3ccccc23)cc1 | inactive |
| O=C(NCc1cccnc1)c1ccccc1-c1nc(-c2ccccc2)no1 | inactive |
| O=C1c2cccnc2C(=O)N1Cc1ccc(S(=O)(=O)NCc2ccco2)cc1 | inactive |
| CCCOc1ccc(CCC(=O)O)cc1 | inactive |
| CCCN1CCCn2nc(CNC(=O)[C@H]3CC[C@@H](N)C3)cc2C1 | inactive |
| N#Cc1c(-c2ccco2)cc(-c2cccnc2)nc1N | inactive |
| CN(C)C(CN=C1NS(=O)(=O)c2ccccc21)c1ccco1 (stereo unspecified) | inactive |
| CS(=O)(=O)N1CCN(c2ccc([N+](=O)[O-])c(SCc3ccco3)c2)CC1 | inactive |
| CCN1CCN(C(=O)c2cc(-c3ccco3)nc3ccccc23)CC1 | inactive |
| CCOc1ccc(-n2c3nc4ccccc4nc3c3c(=O)n(Cc4ccco4)cnc32)cc1 | inactive |
| O=C(Nc1cccc2ccccc12)NC1CC1 | inactive |
| CC(C(=O)N1CCCC1)N1CCN(c2ccccc2O)CC1 (stereo unspecified) | inactive |
| CCOC(=O)/C=C/S(=O)(=O)c1ccc(NC(C)=O)cc1 | inactive |
